PubChem BioAssay AID248 (DTP/NCI, 2004)
Where “and” joins values, the source holds several entries; their conditions need not be identical. Equal entries are not always repeated. Inconclusive results and toxic doses are left out. No stated cut-off is given here; in the data, active means T/C of 150% or more; inactive means T/C below 125%.

System: L1210 leukemia ip in BDF1 mice, survival T/C
Assay: NCI In Vivo Anticancer Drug Screen. Data for tumor model L1210 Leukemia (intraperitoneal) in B6D2F1 (BDF1) mice
Conditions: endpoint: mean survival time, higher = longer survival
How it was run: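 Read-out is survival time, reported as the treated-group measurement over the vehicle-control measurement.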

[1] = dose: 100.0 mg/kg/injection, schedule: Q01DX001 (ip), vehicle: Klucel (hydroxypropylcellulose) (HPC)
[2] = dose: 100.0 mg/kg/injection, schedule: Q04DX003 (ip), vehicle: Klucel (hydroxypropylcellulose) (HPC)
[3] = dose: 200.0 mg/kg/injection, schedule: Q01DX001 (ip), vehicle: Klucel (hydroxypropylcellulose) (HPC)
[4] = dose: 200.0 mg/kg/injection, schedule: Q04DX003 (ip), vehicle: Klucel (hydroxypropylcellulose) (HPC)
[5] = dose: 400.0 mg/kg/injection, schedule: Q01DX001 (ip), vehicle: Klucel (hydroxypropylcellulose) (HPC)
[6] = dose: 400.0 mg/kg/injection, schedule: Q04DX003 (ip), vehicle: Klucel (hydroxypropylcellulose) (HPC)
[7] = dose: 100.0 mg/kg/injection, schedule: Q04DX003 (ip), vehicle: saline with Tween-80
[8] = dose: 200.0 mg/kg/injection, schedule: Q04DX003 (ip), vehicle: saline with Tween-80
[9] = dose: 400.0 mg/kg/injection, schedule: Q04DX003 (ip), vehicle: saline with Tween-80
[10] = dose: 100.0 mg/kg/injection, schedule: Q01DX001 (ip), vehicle: saline
[11] = dose: 200.0 mg/kg/injection, schedule: Q01DX001 (ip), vehicle: saline
[12] = dose: 400.0 mg/kg/injection, schedule: Q01DX001 (ip), vehicle: saline
[13] = dose: 100.0 mg/kg/injection, schedule: Q04DX002 (ip), vehicle: Klucel (hydroxypropylcellulose) (HPC)
[14] = dose: 200.0 mg/kg/injection, schedule: Q04DX002 (ip), vehicle: Klucel (hydroxypropylcellulose) (HPC)
[15] = dose: 400.0 mg/kg/injection, schedule: Q04DX002 (ip), vehicle: Klucel (hydroxypropylcellulose) (HPC)
[16] = dose: 25.0 mg/kg/injection, schedule: Q01DX009 (ip), vehicle: saline
[17] = dose: 50.0 mg/kg/injection, schedule: Q01DX009 (ip), vehicle: saline
[18] = dose: 100.0 mg/kg/injection, schedule: Q04DX003 (ip), vehicle: saline
[19] = dose: 100.0 mg/kg/injection, schedule: Q01DX009 (ip), vehicle: Klucel (hydroxypropylcellulose) (HPC)
[20] = dose: 200.0 mg/kg/injection, schedule: Q01DX009 (ip), vehicle: Klucel (hydroxypropylcellulose) (HPC)

Measured: T/C

N#CC(C#N)=C1CCC(=C(C#N)C#N)CC1
inactive: dose: 50.0 mg/kg/injection, schedule: Q04DX003 (ip), vehicle: Klucel (hydroxypropylcellulose) (HPC) 104 % of control | [1] 105 % of control | [2] 121 % of control | [3] 118 % of control | [4] 96 % of control | [5] 105 % of control

CN(C)c1ccc2c(c1)Cc1cc(N3C(=O)C=CC3=O)ccc1-2
inactive: [2] 101 % of control | [4] 101 % of control | [6] 95 % of control

CN(CCO)c1c(Cl)c(=O)oc2ccc(Cl)cc12
inactive: [7] 90 % of control | [8] 92 % of control | [9] 89 % of control

COc1ccc(/C=C2\CSC(=O)NC2=O)cc1OC
inactive: [10] 104 % of control | [11] 106 % of control | [12] 106 % of control

O=C(Nc1ccc(Cl)cc1)Nc1ccc([N+](=O)[O-])cc1[N+](=O)[O-]
inactive: [13] 111 % of control | [14] 108 % of control | [15] 108 % of control

CNc1n[n+](-c2ccccc2)no1
inactive: [16] 93 % of control | dose: 25.0 mg/kg/injection, schedule: Q04DX003 (ip), vehicle: saline 111 % of control | [17] 109 % of control | dose: 50.0 mg/kg/injection, schedule: Q04DX003 (ip), vehicle: saline 104 % of control | [18] 97 % of control and 101 % of control

Nc1cc(Cl)ccc1Cl
inactive: dose: 100.0 mg/kg/injection, schedule: Q04DX002 (ip), vehicle: gum acacia 91 % of control | dose: 200.0 mg/kg/injection, schedule: Q04DX002 (ip), vehicle: gum acacia 95 % of control | dose: 400.0 mg/kg/injection, schedule: Q04DX002 (ip), vehicle: gum acacia 95 % of control

CCOC(=O)c1cc2c3n(c1=O)CCCC3C(c1ccc(Cl)c(Cl)c1)OC2=O (configuration not stated)
inactive: [10] 97 % of control | [11] 104 % of control | [12] 92 % of control

Cc1cccc(C)c1NC(=O)Oc1ccc2ccccc2c1
inactive: [19] 91 % of control | [2] 104 % of control | [20] 94 % of control | [4] 104 % of control | dose: 400.0 mg/kg/injection, schedule: Q01DX009 (ip), vehicle: Klucel (hydroxypropylcellulose) (HPC) 101 % of control | [6] 105 % of control

CC1(C)CC(=O)C2=C(C1)Nc1ccccc1NC2c1ccc([N+](=O)[O-])cc1 (configuration not stated)
inactive: [13] 103 % of control | [14] 109 % of control | [15] 106 % of control

Cc1c(C#N)oc2c(Cl)cc(Cl)cc12
inactive: [19] 99 % of control | [2] 100 % of control | [20] 99 % of control | [4] 100 % of control | [6] 101 % of control

Cc1ccc(C)c(Cn2cnc3c(=S)nc[nH]c32)c1
inactive: [13] 94 % of control | [14] 94 % of control | [15] 88 % of control

Cc1n[nH]c(=S)n1N
inactive: [7] 115 % of control | [8] 102 % of control | [9] 96 % of control

CC(C)(C)N1CCC1CO (configuration not stated)
inactive: dose: 75.0 mg/kg/injection, schedule: Q01DX001 (ip), vehicle: saline 106 % of control | dose: 150.0 mg/kg/injection, schedule: Q01DX001 (ip), vehicle: saline 97 % of control

CC(C)c1ccc(C(=O)C2CC2)cc1
inactive: dose: 25.0 mg/kg/injection, schedule: Q01DX009 (ip), vehicle: Klucel (hydroxypropylcellulose) (HPC) 93 % of control | dose: 50.0 mg/kg/injection, schedule: Q01DX009 (ip), vehicle: Klucel (hydroxypropylcellulose) (HPC) 101 % of control | [19] 93 % of control and 91 % of control | [2] 96 % of control | [4] 96 % of control | [6] 94 % of control

c1ccc([B-](c2ccccc2)([C+]2CCCCC2)N2CCCCC2)cc1
inactive: dose: 75.0 mg/kg/injection, schedule: Q01DX001 (ip), vehicle: carboxymethylcellulose (CMC) 104 % of control | dose: 150.0 mg/kg/injection, schedule: Q01DX001 (ip), vehicle: carboxymethylcellulose (CMC) 100 % of control

NC(=O)c1ncn[nH]1
inactive: dose: 50.0 mg/kg/injection, schedule: Q01DX009 (ip), vehicle: saline with Tween-80 113 % of control | dose: 50.0 mg/kg/injection, schedule: Q04DX003 (ip), vehicle: saline with Tween-80 104 % of control | dose: 100.0 mg/kg/injection, schedule: Q01DX009 (ip), vehicle: saline with Tween-80 108 % of control | [7] 110 % of control | dose: 200.0 mg/kg/injection, schedule: Q01DX009 (ip), vehicle: saline with Tween-80 120 % of control | [8] 106 % of control

Cc1nccnc1N
inactive: [16] 112 % of control | [17] 110 % of control | dose: 100.0 mg/kg/injection, schedule: Q01DX009 (ip), vehicle: saline 95 % of control and 108 % of control | [18] 98 % of control | dose: 200.0 mg/kg/injection, schedule: Q04DX003 (ip), vehicle: saline 109 % of control | dose: 400.0 mg/kg/injection, schedule: Q04DX003 (ip), vehicle: saline 102 % of control

CC(C)(C)CC(C)(C)N(CSc1ccc([N+](=O)[O-])cc1)CSc1ccc([N+](=O)[O-])cc1
inactive: [10] 102 % of control | [11] 94 % of control | [12] 94 % of control

CC(=O)Nc1ccc(N=C/C=C/c2ccccc2)cc1
inactive: [10] 93 % of control | [11] 94 % of control | [12] 98 % of control

COC1OC(COC(C)=O)C(OC(C)=O)C(OC(C)=O)[CH]1[Hg][S]c1ccccc1 (configuration not stated)
inactive: dose: 1.0 mg/kg/injection, schedule: Q01DX015 (ip), vehicle: carboxymethylcellulose (CMC) 105 % of control | dose: 2.0 mg/kg/injection, schedule: Q01DX015 (ip), vehicle: carboxymethylcellulose (CMC) 98 % of control | dose: 4.0 mg/kg/injection, schedule: Q01DX015 (ip), vehicle: carboxymethylcellulose (CMC) 100 % of control | dose: 8.0 mg/kg/injection, schedule: Q01DX015 (ip), vehicle: carboxymethylcellulose (CMC) 94 % of control and 86 % of control | dose: 16.0 mg/kg/injection, schedule: Q01DX015 (ip), vehicle: carboxymethylcellulose (CMC) 109 % of control

CCCCNC(N)=S
inactive: [2] 98 % of control | [4] 104 % of control | [6] 102 % of control

CCOC(=O)C1C(c2ccccc2)C1c1ccc(C)cc1 (configuration not stated)
inactive: dose: 25.0 mg/kg/injection, schedule: Q04DX002 (ip), vehicle: saline with Tween-80 103 % of control | dose: 50.0 mg/kg/injection, schedule: Q04DX002 (ip), vehicle: saline with Tween-80 103 % of control | dose: 100.0 mg/kg/injection, schedule: Q04DX002 (ip), vehicle: saline with Tween-80 98 % of control

NCCc1cc(O)c(O)c(S(=O)(=O)c2ccccc2)c1
inactive: dose: 87.5 mg/kg/injection, schedule: Q01DX009 (ip), vehicle: saline 96 % of control | dose: 175.0 mg/kg/injection, schedule: Q01DX009 (ip), vehicle: saline 94 % of control | dose: 350.0 mg/kg/injection, schedule: Q01DX009 (ip), vehicle: saline 115 % of control

O=C(NCC(O)CCl)c1ccc([N+](=O)[O-])cc1 (configuration not stated)
inactive: [1] 95 % of control | [2] 97 % of control | [3] 103 % of control | [4] 105 % of control | [5] 95 % of control | [6] 92 % of control
